From patent US9255295B2, “Method for evaluating the sensitizing potential of a test compound” (IMMUNOSEARCH, priority 2010, dated 2016)

Test system: genes specific for sensitization (BRAK, CTSS, DAPK2, FABP4, HSP27, IL18, HSP90, IL1R2, TPSAB1, CXCR1, DEFB1, DHFR, EHF, IVL, KRT4, MELANA, NGAL, PDZK1IP1, PI3 …)
Assay: Expression of the other (non-ARE) sensitization-specific genes in EPISKIN reconstructed skin (quantitative RT-PCR)
Assay type: cell-based, human

SMILES: Oc1ccc(O)cc1 [Hydroquinone]
- TOTAL SENS (NUMBER OF GENES) (1%): 5
- BRAK expression compared to control (10%): 0.8
- BRAK grade (NUMBER OF GENES) (10%): 0 (if this expression is lower, the grade is 0)
- CTSS expression compared to control (10%): 0.8
- CTSS grade (NUMBER OF GENES) (10%): 0 (if this expression is lower, the grade is 0)
- CXCR1 expression compared to control (10%): 2.2
- CXCR1 grade (NUMBER OF GENES) (10%): 1 (If the expression is greater than 1.3 compared to the control, a grade of 11s given)
- DAPK2 expression compared to control (10%): 1.2
- DAPK2 grade (NUMBER OF GENES) (10%): 0 (if this expression is lower, the grade is 0)
- DEFB1 expression compared to control (10%): 1.5
- DEFB1 grade (NUMBER OF GENES) (10%): 1 (If the expression is greater than 1.3 compared to the control, a grade of 11s given)
- DHFR expression compared to control (10%): 0.7
- DHFR grade (NUMBER OF GENES) (10%): 0 (if this expression is lower, the grade is 0)
- EHF expression compared to control (10%): 1.2
- EHF grade (NUMBER OF GENES) (10%): 0 (if this expression is lower, the grade is 0)
- FABP4 expression compared to control (10%): 1.2
- FABP4 grade (NUMBER OF GENES) (10%): 0 (if this expression is lower, the grade is 0)
- HSP27 expression compared to control (10%): 1.0
- HSP27 grade (NUMBER OF GENES) (10%): 0 (if this expression is lower, the grade is 0)
- HSP90 expression compared to control (10%): 1.2
- HSP90 grade (NUMBER OF GENES) (10%): 0 (if this expression is lower, the grade is 0)
- IL18 expression compared to control (10%): 0.9
- IL18 grade (NUMBER OF GENES) (10%): 0 (if this expression is lower, the grade is 0)
- IVL expression compared to control (10%): 1.8
- IVL grade (NUMBER OF GENES) (10%): 1 (If the expression is greater than 1.3 compared to the control, a grade of 11s given)
- KRT4 expression compared to control (10%): 1.2
- KRT4 grade (NUMBER OF GENES) (10%): 0 (if this expression is lower, the grade is 0)
- MELANA expression compared to control (10%): 0.9
- MELANA grade (NUMBER OF GENES) (10%): 0 (if this expression is lower, the grade is 0)
- NGAL expression compared to control (10%): 2.0
- NGAL grade (NUMBER OF GENES) (10%): 1 (If the expression is greater than 1.3 compared to the control, a grade of 11s given)
- P13 expression compared to control (10%): 1.4
- P13 grade (NUMBER OF GENES) (10%): 0 (if this expression is lower, the grade is 0)
- PDZK1iP1 expression compared to control (10%): 1.0
- PDZK1iP1 grade (NUMBER OF GENES) (10%): 0 (if this expression is lower, the grade is 0)
- SENS >1.3 (NUMBER OF GENES) (10%): 4
- SERPINB3 expression compared to control (10%): 1.1
- SERPINB3 grade (NUMBER OF GENES) (10%): 0 (if this expression is lower, the grade is 0)
- TOTAL SENS (NUMBER OF GENES) (10%): 4
- BRAK expression compared to control (50%): 0.8
- BRAK grade (NUMBER OF GENES) (50%): 0 (if this expression is lower, the grade is 0)
- CTSS expression compared to control (50%): 1.6
- CTSS grade (NUMBER OF GENES) (50%): 1 (If the expression is greater than 1.3 compared to the control, a grade of 11s given)
- CXCR1 expression compared to control (50%): 2.9
- CXCR1 grade (NUMBER OF GENES) (50%): 1 (If the expression is greater than 1.3 compared to the control, a grade of 11s given)
- DAPK2 expression compared to control (50%): 1.0
- DAPK2 grade (NUMBER OF GENES) (50%): 0 (if this expression is lower, the grade is 0)
- DEFB1 expression compared to control (50%): 2.0
- DEFB1 grade (NUMBER OF GENES) (50%): 1 (If the expression is greater than 1.3 compared to the control, a grade of 11s given)
- DHFR expression compared to control (50%): 1.1
- DHFR grade (NUMBER OF GENES) (50%): 0 (if this expression is lower, the grade is 0)
- EHF expression compared to control (50%): 1.5
- EHF grade (NUMBER OF GENES) (50%): 1 (If the expression is greater than 1.3 compared to the control, a grade of 11s given)
- FABP4 expression compared to control (50%): 1.4
- FABP4 grade (NUMBER OF GENES) (50%): 1 (If the expression is greater than 1.3 compared to the control, a grade of 11s given)
- HSP27 expression compared to control (50%): 1.3
- HSP27 grade (NUMBER OF GENES) (50%): 0 (if this expression is lower, the grade is 0)
- HSP90 expression compared to control (50%): 1.8
- HSP90 grade (NUMBER OF GENES) (50%): 1 (If the expression is greater than 1.3 compared to the control, a grade of 11s given)
- IL18 expression compared to control (50%): 0.9
- IL18 grade (NUMBER OF GENES) (50%): 0 (if this expression is lower, the grade is 0)
- IVL expression compared to control (50%): 2.6
- IVL grade (NUMBER OF GENES) (50%): 1 (If the expression is greater than 1.3 compared to the control, a grade of 11s given)
- KRT4 expression compared to control (50%): 1.1
- KRT4 grade (NUMBER OF GENES) (50%): 0 (if this expression is lower, the grade is 0)
- MELANA expression compared to control (50%): 1.6
- MELANA grade (NUMBER OF GENES) (50%): 1 (If the expression is greater than 1.3 compared to the control, a grade of 11s given)
- NGAL expression compared to control (50%): 1.3
- NGAL grade (NUMBER OF GENES) (50%): 0 (if this expression is lower, the grade is 0)
- P13 expression compared to control (50%): 1.7
- P13 grade (NUMBER OF GENES) (50%): 1 (If the expression is greater than 1.3 compared to the control, a grade of 11s given)
- PDZK1iP1 expression compared to control (50%): 1.0
- PDZK1iP1 grade (NUMBER OF GENES) (50%): 0 (if this expression is lower, the grade is 0)
- SENS >1.3 (NUMBER OF GENES) (50%): 11
- SERPINB3 expression compared to control (50%): 1.1
- SERPINB3 grade (NUMBER OF GENES) (50%): 0 (if this expression is lower, the grade is 0)
- TOTAL SENS (NUMBER OF GENES) (50%): 11
